# In patent US6544756B1, “Sorbitol dehydrogenase, microorganism for producing same, process for the production thereof, method for the measurement of sorbitol and reagent for the quantitative determination therefor” (Unitika Ltd., priority 1999, dated 2003):
# Key:
# Type in all cases: biochemical
# [1] = test system: sorbitol dehydrogenase derived from Flavimonas oryzihabitans A-520 strain; experiment: Substrate specificity (Vmax/Km, Km) of sorbitol dehydrogenase from A-520 strain; conditions: enzyme from Flavimonas oryzihabitans A-520; for Vmax/Km: relative to D-sorbitol taken as 100
# Description: (§1) The sorbitol dehydrogenase of the invention has the foregoing physicochemical properties. In the present invention, the measurement of the activity of sorbitol dehydrogenase was carried out by adding an enzyme solution to a 80 mM Tris-HCl buffer (pH 9.0) containing 50 mM of D-sorbitol and 2 mM of NAD^+, slowly mixing them, and then measuring the change of absorbance at 340 nm by means of a spectrophotometer. The measurement was made at a temperature of 30° C. The amount of enzyme required to produce 1 μmol of NADH per minute was defined to be 1 unit (U).
# (§2) (2) Substrate specificity: The Vmax/Km of the sorbitol dehydrogenase of the invention with respect to various substrates (relative to that with respect to D-sorbitol taken as 100) is about 40 or less for galactitol and about 3 or less for iditol, preferably about 30 or less for galactitol and about 2 or less for iditol. The Km for D-sorbitol is about 6 mM or less, preferably about 4 mM or less. Among the sorbitol dehydrogenases of the invention, the substrate specificities of those derived from Flavimonas oryzihabitans A-520 strain, Pseudomonas fluorescens A-989 strain and Pseudomonas fluorescens A-654 strain are shown in Table 2 below.
# (§3) Vmax means the maximum velocity of the reaction at the saturated substrate concentration and Km means the Michaelis constant. The Vmax/Km values indicates the apparent […] of the enzyme reaction as a whole, which is generally used as an index for reflecting the substrate specificity. These values may be measured and calculated in accordance with the methods described in Chapter 8 of Biochemistry, second edition, by Albert Lehninger, 1975, Worth Publishers, Inc. or in Enzyme Structure and Mechanism, second edition, by Alan Fersht, 1984, W. H. Freeman & Co.
# [2] = test system: sorbitol dehydrogenase derived from Pseudomonas fluorescens A-989 strain; experiment: Substrate specificity (Vmax/Km, Km) of sorbitol dehydrogenase from A-989 strain; conditions: enzyme from Pseudomonas fluorescens A-989; for Vmax/Km: relative to D-sorbitol taken as 100
# Description: as §1, §2, §3
# [3] = test system: sorbitol dehydrogenase derived from Pseudomonas fluorescens A-654 strain; experiment: Substrate specificity (Vmax/Km, Km) of sorbitol dehydrogenase from A-654 strain; conditions: enzyme from Pseudomonas fluorescens A-654; for Vmax/Km: relative to D-sorbitol taken as 100
# Description: as §1, §2, §3
Vmax/Km [1] [%],Vmax/Km [2] [%],Vmax/Km [3] [%],Km [1] [µM],Km [2] [µM],Km [3] [µM],SMILES
0,0,0,–,–,–,"OC[C@@H](O)C(O)[C@H](O)CO [Arbitol, D-arabitol]"
0,0,0,–,–,–,"O=C[C@H](O)[C@@H](O)[C@H](O)[C@H](O)CO [D-Glucose, D-glucose]"
28.9,36.8,31.9,1900,3100,2000,OC[C@@H](O)[C@H](O)[C@H](O)[C@@H](O)CO [Galactitol]
1.99,2.78,1.55,–,–,–,"OC[C@H](O)[C@@H](O)[C@H](O)[C@@H](O)CO [Iditol, L-iditol]"
0,0,0,–,–,–,"OC[C@@H](O)[C@@H](O)[C@H](O)[C@H](O)CO [Mannitol, D-mannitol]"
100,100,100,2500,5900,3500,"OC[C@@H](O)[C@@H](O)[C@H](O)[C@@H](O)CO [Sorbitol, D-sorbitol]"
0,0,0,–,–,–,"OC[C@@H](O)[C@H](O)[C@@H](O)CO [Xylitol, xylitol]"
